Values joined by “and” are separate entries in the source; they are usually repeats but may differ in a detail not shown here. Identical values can stand only once. Like-named read-outs stand apart in the source and are kept apart here.
Key:
[1] = molecular target: Firefly luciferase (Fluc, EC 1.13.12.7) (Photinus pyralis, UniProt P08659); assay: biochemical; design: single determination (the paper says generally: 'qHTS assays were performed in a single replicate with a 7- to 11-point dose response format'; it is not stated for this counterscreen itself)
Sequence of Firefly luciferase (Fluc, EC 1.13.12.7) (P08659 whole entry): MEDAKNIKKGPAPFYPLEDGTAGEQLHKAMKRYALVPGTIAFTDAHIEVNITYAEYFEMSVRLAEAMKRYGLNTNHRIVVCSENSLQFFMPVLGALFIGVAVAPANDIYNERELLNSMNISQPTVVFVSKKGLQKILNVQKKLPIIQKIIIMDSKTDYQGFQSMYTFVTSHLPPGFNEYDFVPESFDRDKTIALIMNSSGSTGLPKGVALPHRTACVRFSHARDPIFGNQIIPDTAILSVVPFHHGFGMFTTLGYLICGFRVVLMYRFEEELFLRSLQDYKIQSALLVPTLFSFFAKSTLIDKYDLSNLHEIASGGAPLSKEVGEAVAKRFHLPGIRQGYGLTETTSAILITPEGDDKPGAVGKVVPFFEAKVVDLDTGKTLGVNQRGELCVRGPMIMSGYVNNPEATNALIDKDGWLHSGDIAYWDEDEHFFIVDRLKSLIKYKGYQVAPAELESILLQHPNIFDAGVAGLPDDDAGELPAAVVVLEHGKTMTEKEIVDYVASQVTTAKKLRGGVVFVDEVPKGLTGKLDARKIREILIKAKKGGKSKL

[2] = test system: T1, Plasmodium falciparum Dd2-attB (parental line), asexual blood stages; assay: microbe, parasite or virus in culture; design: replicate k of 3 (each line is one of three independent assays; the three lines of one compound and parasite line follow each other); details: n = 1; for Individual replicates / Log AC50 (M): 72 h; for AC50: Plasmodium falciparum, DD2, 72 h, read-out: Individual replicates / Log AC50 (converted)
T1 construct: Dd2-attB, the isogenic parental line
Summary of the method: (§1)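 Only some compounds were profiled here. Each was assayed three independent times against the Dd2-attB parent and its yeast-DHODH-overexpressing derivative.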

[3] = test system: T1, Plasmodium falciparum Dd2-attB (parental line), asexual blood stages; assay: microbe, parasite or virus in culture; design: species or system P. falciparum Dd2-attB in human erythrocytes; SYBR Green-I proliferation assay, Dd2-attB parental line, asexual blood stages; details: 72 h; for AC50: Plasmodium falciparum, DD2, Erythrocyte, read-out: Calculated / Average Log AC50 (M), mean of replicates, 72 h (converted)
[4] = test system: P. berghei-ANKA-GFP-LucCON liver stage parasites in HepG2-A16-CD81EGFP cells; assay: P. berghei liver stage Pb-Luc assay, Method 1 (UCSD, 1536-well); format: cell-based, Plasmodium berghei; details: Method 1
[5] = test system: T2, Plasmodium falciparum Dd2-attB-ScDHODH (transgenic line expressing yeast DHODH), asexual blood stages; assay: organism not typed; design: replicate k of 3 (each line is one of three independent assays; the three lines of one compound and parasite line follow each other); details: 72 h, n = 1; for AC50: read-out: Individual replicates / Log AC50 (converted)
T2 construct: Dd2-attB-ScDHODH, the transgenic line that expresses yeast DHODH
Summary of the method: as §1

[6] = test system: luciferase-expressing P. berghei liver stage parasites in HepG2 cells; assay: Inhibition of liver-stage development assay (ILSDA), Method 2 (WRAIR, 96-well); format: cell-based, Plasmodium berghei; details: P. berghei liver stage, Method 2, dose response
[7] = test system: Plasmodium falciparum Dd2 asexual blood stage parasites; assay: microbe, parasite or virus in culture; design: species or system Plasmodium falciparum Dd2 in human erythrocytes; single determination (one 11-point concentration-response curve); details: Plasmodium falciparum, DD2, Erythrocyte, 72 h; read-out: AC50

| SMILES | AC50 [1] [µM] | Individual replicates / Log AC50 (M) [2] | AC50 [3] [M] | Individual replicates / Log AC50 (M) [5] | AC50 [2] [µM] | further results |
| --- | --- | --- | --- | --- | --- | --- |
| O=C(Cc1ccc(O)cc1)N1CC(CNc2ccccc2)C2(C1)CN(c1ccccc1)C2 (centres unmarked) [NCGC00415859-01] | – | -6.8373 Log AC50 (M) and -6.9373 Log AC50 (M) and -6.5873 Log AC50 (M) | 1.63e-07 | -6.4873 Log AC50 (M) and -6.7373 Log AC50 (M) and -6.8873 Log AC50 (M) | – | Max Resp (signal direction of the dose response) ([4]; Decrease = decreasing P. berghei viability with dose, Increase = increasing signal, Inactive = no dose response): Decrease; AC50 ([4]; Hill fit, 50% of maximum activity response, read-out: AC50): 0.631 µM; Log AC50 (M) ([4]; log10 of molar AC50 from Hill fit): -6.200 M; AC50 ([4]; Plasmodium berghei, Hill fit, 50% of maximum activity response, read-out: AC50): 0.447 µM; AC50 ([4]; Plasmodium berghei, log10 of molar AC50 from Hill fit, read-out: Log AC50 (converted)): 0.447 µM; Activity direction (Decrease / Inactive) [6]: Inactive; AC50 [7]: 0.243 µM |
| CN(C)CCCOc1ccc(-c2cc(O)c3ncccc3c2)cn1 [NCGC00247741-01] | – | -4.7986 Log AC50 (M) and -5.1486 Log AC50 (M) and -5.0986 Log AC50 (M) | 9.65e-06 | -4.7486 Log AC50 (M) and -5.0486 Log AC50 (M) | – | – |
| CCOC(=O)c1ccc(O)c2ncc(NCC3CCCN(CCc4ccccc4)C3)cc12 (centres unmarked) [NCGC00241755-01] | – | -5.1486 Log AC50 (M) and -4.8986 Log AC50 (M) | 8.28e-06 | -5.0986 Log AC50 (M) | 6.33 | AC50 [5]: 6.33 µM |
| O=C(NCCCCN1CCOCC1)c1cccc(-c2cc(O)c3ncccc3c2)c1 [NCGC00249385-01] | – | -5.1986 Log AC50 (M) and -4.8986 Log AC50 (M) | 7.97e-06 | -5.2486 Log AC50 (M) and -5.1486 Log AC50 (M) and -4.8486 Log AC50 (M) | 6.33 | – |
| CCCCN1CCCc2cc(CN(CCCN3CCOCC3)C(=O)Nc3ccc(OCC)cc3)ccc21 [NCGC00140593-02] | – | -4.9986 Log AC50 (M) and -4.7986 Log AC50 (M) | 1.36e-05 | -4.8486 Log AC50 (M) and -4.7986 Log AC50 (M) | 15.9 | AC50 [5]: 17.8 µM |
| O=C(O)CCNc1cc(N2CCc3ccccc3CC2)nc(-c2cccnc2)n1 [NCGC00351549-02] | – | -4.9986 Log AC50 (M) and -4.8486 Log AC50 (M) | – | -4.8486 Log AC50 (M) (2×) and -4.7986 Log AC50 (M) | 14.2 | Calculated / Average Log AC50 (M) ([3]; mean of replicates, inhibitor, Calculated / Average Log AC50 (M)): -4.8986 M |
| Oc1ccc(CNc2cc(Br)ccn2)c2cccnc12 [NCGC00241030-01] | – | -5.2486 Log AC50 (M) and -5.0486 Log AC50 (M) | 6.58e-06 | -5.2486 Log AC50 (M) and -5.1986 Log AC50 (M) and -4.8986 Log AC50 (M) | 5.64 | – |
| NC1CCN(c2cnc3c(O)ccc(C(=O)O)c3c2)CC1 [NCGC00241035-01] | – | -4.7986 Log AC50 (M) and -4.9986 Log AC50 (M) | 1.42e-05 | – | 17.8 | AC50 [5]: 17.8 µM |
| CN1CCN(C(=O)c2ccc(-c3cc(O)c4ncccc4c3)cc2)CC1 [NCGC00244524-01] | – | -5.0486 Log AC50 (M) and -5.0986 Log AC50 (M) | 1.04e-05 | -5.0486 Log AC50 (M) | 15.9 | AC50 [5]: 15.9 µM |

Now from value to compound, other results behind:

| AC50 [1] [µM] | SMILES | Individual replicates / Log AC50 (M) [2] | AC50 [3] [M] | Individual replicates / Log AC50 (M) [5] | AC50 [2] [µM] | further results |
| --- | --- | --- | --- | --- | --- | --- |
| 7.64 | COc1ccc(NC(=O)c2cccc3c2CCN3C(=O)Nc2ccc(F)cc2)c(C)c1 [NCGC00430188-01] | – | – | – | – | – |
| 9.62 | CCOC(=O)Cc1csc(NC(=S)NC(=O)c2ccc(C)cc2)n1 [MLS000574610-01] | – | – | – | – | – |
| 10.8 | Cc1ccc(C(=O)Nc2sc3c(c2C(=O)O)CCCCC3)o1 [MLS000060651-01] | – | – | – | – | – |
| 4.82 | O=C(NC1CCCCC1)c1[nH]nc2c1CCCCC2 [MLS002178094-01] | – | – | – | – | – |
| 8.57 | COc1ccc(C(=O)C=CNc2cc(C)ccn2)cc1 [MLS001043227-01] | – | – | – | – | – |
| 13.6 | Nc1nc(Nc2ccccc2)nc2ccccc12 [MLS000026767-01] | – | – | – | – | – |
| 21.5 | O=C(NCCC1=CCCCC1)C1CCN(C(=O)c2ncn3c2COC(c2ccccc2)C3)CC1 (centres unmarked) [NCGC00449771-01] | – | – | – | – | – |
| 9.62 | NC(=NOC(=O)/C=C/c1ccc(Br)cc1)c1ccccn1 [MLS000680558-01] | – | – | – | – | – |
| 13.6 | Cc1ccc(-c2nc(C)c(C(=O)O)s2)cc1 [MLS000735996-01] | – | – | – | – | – |

From PMC7822874, “Chemoprotective antimalarials identified through quantitative high-throughput screening of Plasmodium blood and liver stage parasites” (Scientific Reports, 2021)
